Data reported in PMC4809498, “Artonin E Induces Apoptosis via Mitochondrial Dysregulation in SKOV-3 Ovarian Cancer Cells” (PLoS ONE, 2016).
In brackets after ≈: the same amount, converted by molar mass.

Experiments:
[1] = system: SKOV-3 cells; test: MTT cell viability assay, SKOV-3; assay type: cell-based, human; details: SKOV-3, MTT; for IC50: Homo sapiens
Method: Metastatic ovarian adenocarcinoma (SKOV-3) and normal Chinese hamster ovary (CHO) cell lines were originally obtained from the American Type Culture Collection (ATCC; Manassas, VA). SKOV-3 cells were cultured in McCoy’s 5A medium and CHO cells were cultured in F12K medium. A human periodontal ligament fibroblast cell line was purchased from Lonza, USA and maintained in stroma cell basal medium. T1074 (normal immortalized human ovarian surface epithelial cell line) was originally purchased from Applied Biological Materials (abm®) Canada and cultured in Prigrow 1 medium.
The inhibitory effects of artonin E and two positive controls paclitaxel and carboplatin were examined by MTT assay. Cells at a density of 5×10^3cells/well were placed in a 96-well plate and left for 24 h to attach. The attached cells were exposed to artonin E, paclitaxel, and carboplatin at different concentrations and incubated for 24, 48, and 72 h. Subsequently, 20 μL of 5 mg/mL MTT solution was added after drug treatment and the resulting mixture was incubated for 4 h to form purple formazan. Afterward, 100 μL of dimethyl sulfoxide (DMSO) was transferred into each well to dissolve the purple formazan, and results were measured using a microplate reader (Tecan Infinite M 200 PRO, Männedorf, Switzerland) at an absorbance of 570 nm. The half-maximal concentrations that caused cell growth inhibition (IC50 values) were obtained from the MTT viability growth curve.

[2] = system: SKOV-3 cells; test: Clonogenic assay; assay type: cell-based, human; details: three weeks incubation
Method: The SKOV-3 cells were trypsinized, centrifuged, and supplemented with fresh media. The cells were immediately counted and seeded (300 cells/plate) in a 60 mm Petridish, and left overnight to attach. The attached cells were treated with 0, 1, 5, 10, 15, and 20 μg/mL of artonin E for 24 h. Following incubation, the treated media were removed and fresh media were added. The cells were incubated for three weeks to form colonies. Surviving colonies were fixed with 90% ethanol and stained with crystal violet.

[3] = system: SKOV-3 cells; test: AO-PI double staining; assay type: cell-based, human; details: SKOV-3, 8 μg/mL, 24, 48, 72 h
Method: The effect of artonin E in inducing cell death in SKOV-3 cells was determined using acridine orange (AO) and propidium iodide (PI) double staining. SKOV-3 cells were plated at 5×10^5cells in a T75cm^2 flask and incubated overnight to allow attachment. The cells were then exposed to 8 μg/mL of artonin E for 24, 48, and 72 h. After incubation, the treated cells were washed with PBS, and then trypsinized and centrifuged at 1,500 rpm for 5 min. The cells were then resuspended in cold PBS and centrifuged twice to obtain fresh clean pellets. The fresh pellets were mixed with an equal volume of fluorescent dye staining solution (1:1), comprising 10μg/mL AO and 10 μg/mL PI (dissolved in PBS). The freshly stained cell suspension was dropped onto a glass slide and observed under a UV–fluorescence microscope (Leica attached with Q-Flora Software) within 30 min, prior to fading of the fluorescence.

[4] = system: cytochrome c; test: Cytochrome c releasing apoptosis assay (Western blot of fractions); assay type: cell-based, human
Method: Cytochrome c releasing apoptosis assay kit (ab65311) was purchased from abcam® (Cambridge, UK). The assay was conducted according to the manufacturer’s instruction. Briefly, SKOV-3 cells were induced with artonin E at different time points. The induced and un-induced cells were collected and centrifuged at […] for 5 minutes at 4°C. The cells were washed twice with 10 mL of ice-cold PBS, centrifuged and collected the pellet. The fresh pellets were then re-suspended with 1.0 mL of 1X cytosol extraction buffer mix containing DTT and Protease Inhibitor and incubated on ice for 10 minutes. Cells were then Dounce-homogenized before centrifuging at 7,000×g for 10 min at 4°C. The supernatant were collected and saved as cytosolic fractions. The remaining pellets were resuspended in 0.1 mL mitochondrial extraction buffer, vortexed for 10 seconds and saved as mitochondrial fractions. Both cytosolic and mitochondrial fractions were applied for protein analysis and proceeded with standard Western blot procedure.
SKOV-3 cells were plated in a 75cm^2 culture flask and exposed to artonin E for 24, 48, and 72 h. […] Protein concentration was determined using a BCA protein assay reagent kit (Bio-Rad, USA). […] The protein bands were detected using pico or femto chemiluminescence (ECL system) and visualized using a UV gel documentation system. […]

[5] = system: caspase-9; test: Colorimetric caspase-9 activation assay; assay type: cell-based, human; details: SKOV-3, 8 μg/mL, from 24 h, prolonged exposure
Method: Calorimetric assay of the activation of caspases-3, -8, and -9 was conducted using R & D system kit, USA. Briefly, in a T75cm^2 flask 90% confluent SKOV-3 cells were induced with artonin E for 24, 48, and 72 h. The induced cells were trypsinized and centrifuged at 1,800 rpm for 10 min. The fresh pellets were washed with cold PBS and immediately lysed with protein lysis buffer. The cell lysate was then kept on ice for 10 min, centrifuged at 10,000 g for 15 min, and transferred into a new tube. The fresh cell lysate (50 μL), which contained 100–200 μg of protein, was added into a 96-well plate in triplicate. Fifty microliters of reaction buffer and 5 μL of caspase were then transferred into each designated well before incubating the plate in a CO2 incubator at 37°C for 2 h. A microplate reader (Tecan Infinite M 200 PRO, Männedorf, Switzerland) was used for analysis at a wavelength of 405 nm.

[6] = system: caspase-3; test: Western blot, caspase-3; assay type: cell-based, human; details: SKOV-3, 8 μg/mL, as early as 24 h
Method: (§1) SKOV-3 cells were plated in a 75cm^2 culture flask and exposed to artonin E for 24, 48, and 72 h. Lysis buffer (50 mM Tris–HCl, pH 8.0; 120 mM NaCl, 0.5% NP-40; and 1 mM PMSF) was used to extract the total protein. Protein concentration was determined using a BCA protein assay reagent kit (Bio-Rad, USA). Equal amounts of protein (40 μg) extract were subjected to SDS-PAGE and electroblotted onto a polyvinylidenedifluoride membrane (Bio-Rad). Blots were then blocked with 5% non-fat milk in TBS-Tween buffer 7 (0.12 M Tris-base, 1.5 M NaCl, and 0.1% Tween 20) for 1 h at room temperature. After incubating with the appropriate primary antibody overnight at 4°C, the blots were washed and then incubated with horseradish peroxidase conjugated secondary antibody for 1 h at room temperature. The protein bands were detected using pico or femto chemiluminescence (ECL system) and visualized using a UV gel documentation system. The subsequent primary antibodies, which include those for β-actin (1:10,000), Bax (1:10,000), Bcl-2 (1:10,000), HSP-70 (1:10,000), survivin (1:10,000),caspase -3 (1:10,000), caspase -8 (1:10,000), caspase -9 (1;10,000) and cytochrome c (1:200) were purchased from Abcam, Cambridge, United Kingdom.

[7] = system: HSP70; test: Western blot, HSP70; assay type: cell-based, human; details: SKOV-3, 8 μg/mL, 72 h after treatment
Method: as §1

[8] = set-up: method as in PMID 17855020; details: cited from earlier work

Compound: CC(C)=CCc1c(-c2cc(O)c(O)cc2O)oc2c3c(cc(O)c2c1=O)OC(C)(C)C=C3 [Artonin E, artonin E]
- IC50 ([1]; SK-OV-3, 24 h, 24 h treatment): 12.8 ± 0.28 µg/mL (≈ 29.4 µM)
- IC50 ([1]; SK-OV-3, 48 h, 48 h treatment): 8 µg/mL (≈ 18.3 µM)
- IC50 ([1]; SK-OV-3, 72 h, 72 h treatment): 6.5 ± 0.5 µg/mL (≈ 14.9 µM)
- IC50 values ([1]; 48 h treatment): 8.8 ± 0.29 µg/mL (≈ 20.2 µM)
- colony formation ([2]; SKOV-3, 5 μg/mL for 24 h): almost half of the colonies were reduced
- colony formation ([2]; SKOV-3, 10 μg/mL for 24 h): decreasing sharply
- colony formation ([2]; SKOV-3, 15 and 20 μg/mL for 24 h): No colonies were formed
- induction of apoptosis (AO-PI scoring) vs untreated cells [3]: statistically significant (p<0.05) difference
- expression level of cytochrome c in cytosolic fraction ([4]; SKOV-3, 8 μg/mL, 24, 48, 72 h): increase
- expression level of cytochrome c in mitochondrial fraction ([4]; SKOV-3, 8 μg/mL, time-dependent (24, 48, 72 h)): significantly (p<0.05) decreased
- stimulation of caspase-9 [5]: increased significantly
- protein expression level of caspase-3 [6]: significantly (p<0.05) up-regulated
- level of HSP70 expression [7]: reduced significantly
- radical scavenging against the DPPH radical [8]: strong radical scavenging properties
